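Step 1: Grow cells in 96-well plates. Step 2: Expose to compound for 48 hours at 5 concentrations. Step 3: Interpolate endpoints linearly; if unreached, use highest concentration. At the GI50, growth is halved. TGI: concentration producing complete growth inhibition.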
Assays:
Assay in all cases: inhibition of tumour cell growth, NCI panel, 48 h
NCI/ADR-RES ovarian = tested on: NCI/ADR-RES ovarian
HL-60(TB) leukemia = tested on: HL-60(TB) leukemia
BT-549 breast = tested on: BT-549 breast
CAKI-1 renal = tested on: CAKI-1 renal
SF-539 CNS = tested on: SF-539 CNS
A549 NSCLC = tested on: A549 NSCLC
KM12 colon = tested on: KM12 colon
LOX IMVI melanoma = tested on: LOX IMVI melanoma
SW-620 colon = tested on: SW-620 colon
TK-10 renal = tested on: TK-10 renal
HOP-92 NSCLC = tested on: HOP-92 NSCLC
ACHN renal = tested on: ACHN renal
RXF 393 renal = tested on: RXF 393 renal
NCI-H23 lung = tested on: NCI-H23 lung
CCRF-CEM leukemia = tested on: CCRF-CEM leukemia
HCC-2998 colon = tested on: HCC-2998 colon
OVCAR-3 ovarian = tested on: OVCAR-3 ovarian
HOP-62 NSCLC = tested on: HOP-62 NSCLC
T-47D breast = tested on: T-47D breast
NCI-H460 lung = tested on: NCI-H460 lung
HS 578T breast = tested on: HS 578T breast
UACC-257 melanoma = tested on: UACC-257 melanoma
SK-MEL-2 melanoma = tested on: SK-MEL-2 melanoma
NCI-H226 lung = tested on: NCI-H226 lung
UACC-62 melanoma = tested on: UACC-62 melanoma
A498 renal = tested on: A498 renal
UO-31 renal = tested on: UO-31 renal
SF-268 CNS = tested on: SF-268 CNS
M14 melanoma = tested on: M14 melanoma
IGROV1 ovarian = tested on: IGROV1 ovarian
SK-MEL-28 melanoma = tested on: SK-MEL-28 melanoma
OVCAR-8 ovarian = tested on: OVCAR-8 ovarian
MALME-3M melanoma = tested on: MALME-3M melanoma
SN12C renal = tested on: SN12C renal
OVCAR-4 ovarian = tested on: OVCAR-4 ovarian
DU-145 prostate = tested on: DU-145 prostate
SNB-75 CNS = tested on: SNB-75 CNS
COLO 205 colon = tested on: COLO 205 colon
SNB-19 CNS = tested on: SNB-19 CNS
PC-3 prostate = tested on: PC-3 prostate
SF-295 CNS = tested on: SF-295 CNS
HCT-15 colon = tested on: HCT-15 colon
MDA-MB-231 breast = tested on: MDA-MB-231 breast
HT29 colon = tested on: HT29 colon
786-0 renal = tested on: 786-0 renal
OVCAR-5 ovarian = tested on: OVCAR-5 ovarian
RPMI-8226 leukemia = tested on: RPMI-8226 leukemia
MCF7 breast = tested on: MCF7 breast
MOLT-4 leukemia = tested on: MOLT-4 leukemia
EKVX NSCLC = tested on: EKVX NSCLC
MDA-MB-435 = tested on: MDA-MB-435
SK-MEL-5 melanoma = tested on: SK-MEL-5 melanoma
NCI-H522 lung = tested on: NCI-H522 lung
SR leukemia = tested on: SR leukemia
U251 CNS = tested on: U251 CNS
HCT-116 colon = tested on: HCT-116 colon
K-562 leukemia = tested on: K-562 leukemia
SK-OV-3 ovarian = tested on: SK-OV-3 ovarian

## COc1ccc2c(c1)oc1c(C)c3c(c(C)c12)C(=O)N(N)C3=O
NCI/ADR-RES ovarian
  GI50: > 100 µM
  TGI: > 100 µM
HL-60(TB) leukemia
  GI50: > 100 µM
  TGI: > 100 µM
BT-549 breast
  GI50: 5.2 µM
  TGI: > 100 µM
CAKI-1 renal
  GI50: > 100 µM
  TGI: > 100 µM
SF-539 CNS
  GI50: 78.8 µM
  TGI: > 100 µM
A549 NSCLC
  GI50: > 100 µM
  TGI: > 100 µM
KM12 colon
  GI50: > 100 µM
  TGI: > 100 µM
LOX IMVI melanoma
  GI50: > 100 µM
  TGI: > 100 µM
SW-620 colon
  GI50: > 100 µM
  TGI: > 100 µM
TK-10 renal
  GI50: > 100 µM
  TGI: > 100 µM
HOP-92 NSCLC
  GI50: > 100 µM
  TGI: > 100 µM
ACHN renal
  GI50: 7.53 µM
  TGI: > 100 µM
RXF 393 renal
  GI50: 8.21 µM
  TGI: > 100 µM
NCI-H23 lung
  GI50: > 100 µM
  TGI: > 100 µM
CCRF-CEM leukemia
  GI50: > 100 µM
  TGI: > 100 µM
HCC-2998 colon
  GI50: > 100 µM
  TGI: > 100 µM
OVCAR-3 ovarian
  GI50: > 100 µM
  TGI: > 100 µM
HOP-62 NSCLC
  GI50: 25 µM
  TGI: > 100 µM
T-47D breast
  GI50: > 100 µM
  TGI: > 100 µM
NCI-H460 lung
  GI50: 3.49 µM
  TGI: > 100 µM
HS 578T breast
  GI50: 32.6 µM
  TGI: > 100 µM
UACC-257 melanoma
  GI50: > 100 µM
  TGI: > 100 µM
SK-MEL-2 melanoma
  GI50: > 100 µM
  TGI: > 100 µM
NCI-H226 lung
  GI50: 40.4 µM
  TGI: > 100 µM
UACC-62 melanoma
  GI50: > 100 µM
  TGI: > 100 µM
A498 renal
  GI50: 4.25 µM
  TGI: > 100 µM
UO-31 renal
  GI50: > 100 µM
  TGI: > 100 µM
SF-268 CNS
  GI50: 21.9 µM
  TGI: > 100 µM
M14 melanoma
  GI50: > 100 µM
  TGI: > 100 µM
IGROV1 ovarian
  GI50: > 100 µM
  TGI: > 100 µM
SK-MEL-28 melanoma
  GI50: > 100 µM
  TGI: > 100 µM
OVCAR-8 ovarian
  GI50: 7.89 µM
  TGI: > 100 µM
MALME-3M melanoma
  GI50: > 100 µM
  TGI: > 100 µM
SN12C renal
  GI50: > 100 µM
  TGI: > 100 µM
OVCAR-4 ovarian
  GI50: > 100 µM
  TGI: > 100 µM
DU-145 prostate
  GI50: > 100 µM
  TGI: > 100 µM
SNB-75 CNS
  GI50: 4.37 µM
  TGI: > 100 µM
COLO 205 colon
  GI50: > 100 µM
  TGI: > 100 µM
SNB-19 CNS
  GI50: > 100 µM
  TGI: > 100 µM
PC-3 prostate
  GI50: > 100 µM
  TGI: > 100 µM
SF-295 CNS
  GI50: > 100 µM
  TGI: > 100 µM
HCT-15 colon
  GI50: > 100 µM
  TGI: > 100 µM
MDA-MB-231 breast
  GI50: 61.9 µM
  TGI: > 100 µM
HT29 colon
  GI50: > 100 µM
  TGI: > 100 µM
786-0 renal
  GI50: 22.7 µM
  TGI: > 100 µM
OVCAR-5 ovarian
  GI50: > 100 µM
  TGI: > 100 µM
RPMI-8226 leukemia
  GI50: > 100 µM
  TGI: > 100 µM
MCF7 breast
  GI50: 50.7 µM
  TGI: > 100 µM
MOLT-4 leukemia
  GI50: 23.4 µM
  TGI: > 100 µM
EKVX NSCLC
  GI50: > 100 µM
  TGI: > 100 µM

## O=C1c2ccccc2C(=O)c2c1c(=O)c(=O)c1ccccc1c(=O)n2Cc1ccccc1
NCI/ADR-RES ovarian
  GI50: > 100 µM
  TGI: > 100 µM
HL-60(TB) leukemia
  GI50: 41.8 µM
  TGI: > 100 µM
BT-549 breast
  GI50: > 100 µM
  TGI: > 100 µM
CAKI-1 renal
  GI50: > 100 µM
  TGI: > 100 µM
SF-539 CNS
  GI50: > 100 µM
  TGI: > 100 µM
A549 NSCLC
  GI50: 47.2 µM
  TGI: > 100 µM
KM12 colon
  GI50: 81.9 µM
  TGI: > 100 µM
LOX IMVI melanoma
  GI50: 92.9 µM
  TGI: > 100 µM
SW-620 colon
  GI50: > 100 µM
  TGI: > 100 µM
TK-10 renal
  GI50: > 100 µM
  TGI: > 100 µM
MDA-MB-435
  GI50: > 100 µM
  TGI: > 100 µM
ACHN renal
  GI50: > 100 µM
  TGI: > 100 µM
RXF 393 renal
  GI50: > 100 µM
  TGI: > 100 µM
NCI-H23 lung
  GI50: 8.51 µM
  TGI: > 100 µM
CCRF-CEM leukemia
  GI50: 7.67 µM
  TGI: > 100 µM
SK-MEL-5 melanoma
  GI50: 15.8 µM
  TGI: 47.2 µM
HCC-2998 colon
  GI50: 84.2 µM
  TGI: > 100 µM
OVCAR-3 ovarian
  GI50: 88.8 µM
  TGI: > 100 µM
NCI-H522 lung
  GI50: > 100 µM
  TGI: > 100 µM
HOP-62 NSCLC
  GI50: > 100 µM
  TGI: > 100 µM
SR leukemia
  GI50: 29 µM
  TGI: > 100 µM
NCI-H460 lung
  GI50: 50.7 µM
  TGI: > 100 µM
HS 578T breast
  GI50: > 100 µM
  TGI: > 100 µM
UACC-257 melanoma
  GI50: > 100 µM
  TGI: > 100 µM
SK-MEL-2 melanoma
  GI50: > 100 µM
  TGI: > 100 µM
NCI-H226 lung
  GI50: > 100 µM
  TGI: > 100 µM
UACC-62 melanoma
  GI50: 66.3 µM
  TGI: > 100 µM
A498 renal
  GI50: > 100 µM
  TGI: > 100 µM
UO-31 renal
  GI50: > 100 µM
  TGI: > 100 µM
U251 CNS
  GI50: > 100 µM
  TGI: > 100 µM
SF-268 CNS
  GI50: > 100 µM
  TGI: > 100 µM
M14 melanoma
  GI50: 36.6 µM
  TGI: > 100 µM
HCT-116 colon
  GI50: > 100 µM
  TGI: > 100 µM
IGROV1 ovarian
  GI50: 79.2 µM
  TGI: > 100 µM
SK-MEL-28 melanoma
  GI50: > 100 µM
  TGI: > 100 µM
OVCAR-8 ovarian
  GI50: > 100 µM
  TGI: > 100 µM
MALME-3M melanoma
  GI50: 28.6 µM
  TGI: 80.1 µM
SN12C renal
  GI50: > 100 µM
  TGI: > 100 µM
OVCAR-4 ovarian
  GI50: > 100 µM
  TGI: > 100 µM
DU-145 prostate
  GI50: 47.9 µM
  TGI: > 100 µM
SNB-75 CNS
  GI50: > 100 µM
  TGI: > 100 µM
COLO 205 colon
  GI50: > 100 µM
  TGI: > 100 µM
SNB-19 CNS
  GI50: > 100 µM
  TGI: > 100 µM
PC-3 prostate
  GI50: > 100 µM
  TGI: > 100 µM
SF-295 CNS
  GI50: 53.1 µM
  TGI: > 100 µM
K-562 leukemia
  GI50: 53.7 µM
  TGI: > 100 µM
HCT-15 colon
  GI50: > 100 µM
  TGI: > 100 µM
MDA-MB-231 breast
  GI50: > 100 µM
  TGI: > 100 µM
HT29 colon
  GI50: > 100 µM
  TGI: > 100 µM
786-0 renal
  GI50: > 100 µM
  TGI: > 100 µM
OVCAR-5 ovarian
  GI50: > 100 µM
  TGI: > 100 µM
RPMI-8226 leukemia
  GI50: 28.5 µM
  TGI: 85.2 µM
MCF7 breast
  GI50: 79.1 µM
  TGI: > 100 µM
MOLT-4 leukemia
  GI50: 38.2 µM
  TGI: > 100 µM
EKVX NSCLC
  GI50: > 100 µM
  TGI: > 100 µM
SK-OV-3 ovarian
  GI50: > 100 µM
  TGI: > 100 µM
